Here are results for 5 compounds from patent publication US7879836B2, “Pharmaceutical composition comprising a 1-(3-chlorophenyl)-3-alkylpiperazine for treating appetite disorder” (Aziende Chimiche Riunite Angelini Francesco A.C.R.A.F. …, priority 2005, dated 2011).

In one data set the test system is food-deprived rats. Description: Hypophagia-inducing activity in food-deprived rats. Format: in vivo, rat. Particulars: 10 mg/kg orally; rats deprived of food for 24 h; one hour after treatment; FIGS. 2A, 2B. The source says: Verification of the consumption of food in food-deprived rats represents a condition that reproduces the complex system regulating the sensation of hunger and the intake of food in humans. Fasting in fact introduces many physiological changes that can lead to activation of the circuits that are specifically dedicated to the control of food intake. As is well known, the use of this model constitutes a valid tool for identifying substances capable of interfering with appetite disorders and can be used in particular for monitoring conditions such as hyperphagia, bulimia and obesity.
Male CD rats weighing 300-350 g were used.
The animals were kept in a room with a controlled cycle of light and darkness (6:00-18:00). Before the test, which was carried out at 9:30 corresponding to daytime, the animals were deprived of food for 24 h. At the end of the fasting period, the animals were treated orally with the test compounds (10 mg/kg) in an aqueous vehicle and, immediately after treatment, a pre-weighed amount of food was made available. One hour after treatment, the food consumption was evaluated by weighing the amount of food remaining. The control animals were treated orally with the vehicle (water) used for administering the test compounds.

In the next data set the test system is Male CD rats. Description: Anxiogenic activity in the rat (test of social interaction). It counts as in vivo. The following applies: intraperitoneal; evaluated after 20 minutes during a 10-minute period; FIG. 1. The source says:
The anxiogenic activity of the compounds of the present invention was investigated by means of the social interaction test in the rat, which, as is known by a person skilled in the art, represents an experimental model that is predictive of the effects in humans.
Measurement of the time spent by pairs of animals in interacting with one another and exploring their surroundings (usually an arena consisting of a Perspex container) constitutes a model for verifying the action of substances that influence social behaviour.
Male CD rats weighing 150-250 g were used.
The animals were kept in a room with a controlled cycle of light and darkness (6:00-18:00). To promote acclimatization and eliminate responses induced by stress conditions, the rats were handled and were injected daily with the vehicle (water) for the four days preceding administration of the test compounds.
On the fifth day the animals were treated intraperitoneally with the test compounds and, after 20 minutes, the interaction time (seconds) spent by the animals during a 10-minute period was evaluated.

A further data set deals with rat. The following applies: Eur J Pharmacol, 1989, 164: 445-54; cited from earlier work.

On to `CC1CN(c2cccc(Cl)c2)CCN1` (racemic) [Compound 1], for which the “amount of food consumed, lower than that consumed by the control animals” value in the data set with food-deprived rats is “approx. 28%”.

As to `C[C@H]1CN(c2cccc(Cl)c2)CCN1` [Compound 2], the “amount of food consumed, lower than that consumed by the control animals” value in the data set on food-deprived rats was 75-80%.

Turning to `Clc1cccc(N2CCNCC2)c1` [mCPP, m-chlorophenyl-piperazine], the “interaction time relative to that of the control animals” value in the data set with Male CD rats was “approx. 50%”. In addition, the “anxiogenic effects (social interaction time)” value in the data set on rat is listed as “reduce social interaction time”.

Regarding `C[C@@H]1CN(c2cccc(Cl)c2)CCN1` [Compound 3], the “amount of food consumed, lower than that consumed by the control animals” value in the data set with food-deprived rats was about 20%.

For the compound `FC(F)(F)c1cccc(N2CCNCC2)c1` [TFMPP, m-trifluoromethyl phenylpiperazine], in the data set with rat, the “anxiogenic effects (social interaction time)” value is “reduce social interaction time”.
